In paper PMC10975527 (Viruses, 2024):
≈ marks a conversion by molar mass, not a printed value. Read-outs that look alike come from different tables or passages of the source.

What was measured:
[1] = system: HBV (AAV-HBV); experiment: AAV-HBV mouse model, serum HBsAg; details: AAV-HBV mice; for mean reduction of serum HBsAg compared to pre-dose baseline: 14 days
[2] = system: RSV; experiment: Antiviral selectivity panel: RSV; assay type: cell-based; details: human respiratory syncytial virus, HEp-2; HEp2 (human epithelial)
[3] = male, C57BL/6J, mouse, in vivo, 24 h
[4] = in vitro; assay type: in vitro ADME; details: human
[5] = system: HBV; experiment: HBV-infected HepG2-hNTCP antiviral assay; assay type: cell-based; details: Hepatitis B virus, genotype D
[6] = Cytotoxicity in HepG2-hNTCP cells; assay type: cell-based; details: human, HBV-infected HepG2-hNTCP-C4 cells
[7] = system: Sprague Dawley rats; experiment: 13-week repeat-dose toxicity study in rats; assay type: in vivo
[8] = system: HCV; experiment: Antiviral selectivity panel: HCV; assay type: cell-based; details: Hepatitis C virus; Huh-7 (human liver)
[9] = system: HCMV; experiment: Antiviral selectivity panel: HCMV; assay type: cell-based, human cytomegalovirus; details: Human betaherpesvirus 5, MRC5; MRC-5 (human lung)
[10] = in vitro; assay type: in vitro ADME; details: rat, plasma
[11] = system: HBV; experiment: Effective concentration mediating 90% inhibition (EC90), system not given; assay type: cell-based; details: Hepatitis B virus; used for comparison with unbound concentrations; cell system not stated
[12] = system: HBV pgRNA and preS/S RNA; experiment: Northern blot of intracellular HBV RNA in HepG2.2.15 cells; assay type: cell-based; details: Hepatitis B virus, HepG2.2.15, 48 h
[13] = system: IAV; experiment: microbe, parasite or virus in culture; assay type: cell-based; details: Influenza A virus, MDBK, in Bos taurus, read-out: EC50 (IAV)
[14] = in vitro; details: monkey
[15] = system: Beagle dogs; experiment: 13-week repeat-dose toxicity study in dogs; assay type: in vivo; parameters: key to Testis: Degeneration/Atrophy, Minimal, incidence / Testis: Degeneration/Atrophy, Mild, incidence / Testis: Degeneration/Atrophy, Moderate, incidence / Epididymis: Cellular debris, Minimal, incidence / Epididymis: Cellular debris, Mild, incidence / Epididymis: Cellularity, decreased; sperm, Minimal, incidence / Epididymis: Cellularity, decreased; sperm, Mild, incidence / Epididymis: Cellularity, decreased; sperm, Marked, incidence: - = no AB-161-related findings
[16] = system: HIV; experiment: Antiviral selectivity panel: HIV; assay type: cell-based; details: Human immunodeficiency virus 1; CEM-22 (human T lymphoblast)
[17] = system: HSV-1/HSV-2; experiment: Antiviral selectivity panel: HSV-1/HSV-2; assay type: cell-based, herpes simplex virus-1/herpes simplex virus-2; details: MRC5; MRC-5 (human lung)
[18] = mouse, in vivo
[19] = in vitro; assay type: in vitro ADME; details: mouse
[20] = system: DENV2; experiment: Antiviral selectivity panel: DENV2; assay type: cell-based, dengue virus type 2; details: Dengue virus, DENV2, BHK-21, in Mesocricetus auratus; BHK21 (hamster kidney)
[21] = system: panel of RNA and DNA viruses; experiment: Antiviral selectivity against a panel of RNA and DNA viruses (summary); assay type: cell-based
[22] = system: HBsAg expressed from integrated HBV; experiment: HBsAg from integrated HBV in PLC/PRF/5 cells; assay type: cell-based; details: Hepatitis B virus, PLC-PRF-5, read-out: HBsAg EC50
[23] = in vitro; details: bovine
[24] = male dogs, 10 mg/kg/day, end of main study (days 97–100)
[25] = male dogs, 10 mg/kg/day, end of main study, 4 examined
[26] = male dogs, 30 mg/kg/day, end of main study (days 97–100)
[27] = male dogs, 30 mg/kg/day, end of main study, 3 examined
[28] = male dogs, 100 mg/kg/day, end of main study (days 97–100)
[29] = male dogs, 100 mg/kg/day, end of main study, 4 examined
[30] = male dogs, 100 mg/kg/day, end of recovery (Day 120)
[31] = male dogs, 100 mg/kg/day, end of recovery (Day 120), 2 examined

COc1cc(OC(F)F)c2nc3c(n2c1)C[C@@H](C(C)(C)C)c1cc(C(=O)O)c(=O)[nH]c1-3 [AB-161]
mean reduction of serum HBsAg compared to pre-dose baseline ([1]; 0.3 mg/kg oral QD): 0.13 log10
mean reduction of serum HBsAg compared to pre-dose baseline ([1]; 1 mg/kg oral QD): 0.34 log10
mean reduction of serum HBsAg compared to pre-dose baseline ([1]; 10 mg/kg oral QD): 0.71 log10
mean reduction of serum HBsAg compared to pre-dose baseline ([1]; 30 mg/kg oral QD): 0.94 log10
earliest time at which inhibition of serum HBsAg was observed ([1]; after initiation of dosing): 4 days
mean maximal reduction of serum HBsAg compared to pre-dose baseline ([1]; oral QD 14 days, dose range 0.3 to 30 mg/kg): 0.94 ± 0.56 log10
EC50 [2]: > 30 µM
fraction unbound AB-161 in plasma (C24h) below its EC90 [3]: at least 1 log10
plasma protein binding, bound ([4]; 6 h, 500 ng/mL): 95%
fraction unbound at 6 h, 500 ng/mL ([4]; plasma, plasma protein binding, bound): 0.049
EC50 ([5]; read-out: HBV RNA EC50 (converted)): 0.0301 µM
EC50 ([5]; read-out: HBeAg EC50 (converted)): 0.0209 µM
EC50 ([5]; read-out: HBsAg EC50): 0.0253 ± 0.0109 µM
CC50 [6]: > 10 µM
reproductive safety findings ([7]; male or female rats, 13-week administration, all doses): no reproductive safety findings
motor nerve conduction ([7]; rats): No differences from baseline or time-matched controls
sensory nerve conduction velocity (NCV) ([7]; rats, 500 mg/kg, day 70 and day 119, considered non-adverse): NCV delays were noted
EC50 [8]: > 30 µM
EC50 [9]: > 30 µM
fraction unbound at 6 h, 500 ng/mL [10]: 0.056
EC90 [11]: 0.0128 mg/L (≈ 0.0295 µM)
EC50 ([12]; read-out: EC50, steady state level of pgRNA (3.5 kb)): 0.0069 to 0.021 µM
EC50 ([12]; read-out: EC50, steady state level of preS/S RNA (2.4/2.1 kb)): 0.0023 to 0.0069 µM
EC50 [13]: > 30 µM
CC50 [14]: > 30 µM
motor nerve conduction ([15]; dogs): No differences from baseline or time-matched controls
animals with persisting peroneal sensory NCV delays ([15]; dogs, 100 mg/kg/day recovery cohort, day 119): 2 of 4
animals with peroneal sensory NCV delays ([15]; dogs, 100 mg/kg/day, days 71 to 72): 4 of 12
food consumption, electrocardiography, neurological examinations, urinalysis ([15]; dogs, 10, 30, or 100 mg/kg/day): no AB-161-related effects
reproductive safety findings ([15]; female dogs, 13-week administration, all doses): no reproductive safety findings
Testis: Degeneration/Atrophy, incidence ([15]; male dogs, 10 mg/kg/day, end of main study (day 97–100), 4 examined): 0
Testis weight, % of body weight [15, 24]: −9.38 percent difference from the control group means
Testis weight, % of brain weight [15, 24]: −16.13 percent difference from the control group means
Testis weight, absolute value [15, 24]: −18.03 percent difference from the control group means
Epididymis: Cellular debris, Mild, incidence [15, 25]: -
Epididymis: Cellular debris, Minimal, incidence [15, 25]: -
Epididymis: Cellular debris, incidence [15, 25]: 0
Epididymis: Cellularity, decreased; sperm, Marked, incidence [15, 25]: -
Epididymis: Cellularity, decreased; sperm, Mild, incidence [15, 25]: -
Epididymis: Cellularity, decreased; sperm, Minimal, incidence [15, 25]: -
Epididymis: Cellularity, decreased; sperm, incidence [15, 25]: 0
Testis: Degeneration/Atrophy, Mild, incidence [15, 25]: -
Testis: Degeneration/Atrophy, Minimal, incidence [15, 25]: -
Testis: Degeneration/Atrophy, Moderate, incidence [15, 25]: -
Testis weight, % of body weight [15, 26]: −21.93 percent difference from the control group means
Testis weight, % of brain weight [15, 26]: −30.73 percent difference from the control group means
Testis weight, absolute value [15, 26]: −34.17 percent difference from the control group means
Epididymis: Cellular debris, Mild, incidence [15, 27]: 2
Epididymis: Cellular debris, Minimal, incidence [15, 27]: 0
Epididymis: Cellular debris, incidence [15, 27]: 2
Epididymis: Cellularity, decreased; sperm, Marked, incidence [15, 27]: 0
Epididymis: Cellularity, decreased; sperm, Mild, incidence [15, 27]: 2
Epididymis: Cellularity, decreased; sperm, Minimal, incidence [15, 27]: 0
Epididymis: Cellularity, decreased; sperm, incidence [15, 27]: 2
Testis: Degeneration/Atrophy, Mild, incidence [15, 27]: 1
Testis: Degeneration/Atrophy, Minimal, incidence [15, 27]: 1
Testis: Degeneration/Atrophy, Moderate, incidence [15, 27]: 0
Testis: Degeneration/Atrophy, incidence [15, 27]: 2
Testis weight, % of body weight [15, 28]: −12.18 percent difference from the control group means
Testis weight, % of brain weight [15, 28]: −16.10 percent difference from the control group means
Testis weight, absolute value [15, 28]: −20.62 percent difference from the control group means
Epididymis: Cellular debris, Mild, incidence [15, 29]: 2
Epididymis: Cellular debris, Minimal, incidence [15, 29]: 2
Epididymis: Cellular debris, incidence [15, 29]: 4
Epididymis: Cellularity, decreased; sperm, Marked, incidence [15, 29]: 1
Epididymis: Cellularity, decreased; sperm, Mild, incidence [15, 29]: 2
Epididymis: Cellularity, decreased; sperm, Minimal, incidence [15, 29]: 1
Epididymis: Cellularity, decreased; sperm, incidence [15, 29]: 4
Testis: Degeneration/Atrophy, Mild, incidence [15, 29]: 1
Testis: Degeneration/Atrophy, Minimal, incidence [15, 29]: 2
Testis: Degeneration/Atrophy, Moderate, incidence [15, 29]: 1
Testis: Degeneration/Atrophy, incidence [15, 29]: 4
Testis weight, % of body weight [15, 30]: −37.79 percent difference from the control group means
Testis weight, % of brain weight [15, 30]: −43.49 percent difference from the control group means
Testis weight, absolute value [15, 30]: −42.84 percent difference from the control group means
Epididymis: Cellular debris, Mild, incidence [15, 31]: (2) 2 2 2 2
Epididymis: Cellular debris, incidence [15, 31]: (2) 2 2 2 2
Epididymis: Cellularity, decreased; sperm, Moderate, incidence [15, 31]: (2) 2 2 2 2
Epididymis: Cellularity, decreased; sperm, incidence [15, 31]: (2) 2 2 2 2
Testis: Degeneration/Atrophy, Moderate, incidence [15, 31]: (2) 2 2
Testis: Degeneration/Atrophy, incidence [15, 31]: (2) 2 2
testis microscopic finding ([15]; male dogs, 30 and 100 mg/kg/day at terminal euthanasia, persisted at end of recovery at 100 mg/kg/day): degeneration/atrophy in the testis was noted
EC50 [16]: > 30 µM
EC50 [17]: > 30 µM
liver and kidney function markers (ALT, creatinine) [18]: no significant changes
AB-161 estimated to be free ([19]; 6 h, 500 ng/mL): 2.4%
fraction unbound at 6 h, 500 ng/mL ([19]; plasma): 0.024
fraction-unbound factor ([19]; plasma, 6 h, 500 ng/mL): 0.024
EC50 [20]: > 30 µM
selectivity for HBV ([21]; HBV vs panel of RNA and DNA viruses): > 10,000 fold
activity against a panel of RNA and DNA viruses ([21]; all ten viruses, up to the highest concentration tested at 30 μM): inactive
EC50 [22]: 0.0059 ± 0.0025 µM
CC50 [23]: > 30 µM
